Measured values as given in BigSolDB 2.1.

CC(C)(Oc1ccc(CCNC(=O)c2ccc(Cl)cc2)cc1)C(=O)O
Conditions	solubility (mole fraction)
in 2-butanone, 283.14 K	0.00191
in 2-butanone, 288.16 K	0.00227
in 2-butanone, 293.17 K	0.00268
in 2-butanone, 298.16 K	0.00312
in 2-butanone, 303.17 K	0.0037
in 2-butanone, 308.14 K	0.00436
in 2-butanone, 313.16 K	0.00505
in 2-butanone, 318.17 K	0.0058
in 2-butanone, 323.16 K	0.00685
in acetonitrile, 283.24 K	0.000113
in acetonitrile, 288.25 K	0.000153
in acetonitrile, 293.24 K	0.000202
in acetonitrile, 298.25 K	0.000274
in acetonitrile, 303.24 K	0.000355
in acetonitrile, 308.22 K	0.00047
in acetonitrile, 313.22 K	0.000625
in acetonitrile, 318.23 K	0.000809
in acetonitrile, 323.24 K	0.00103
in cyclohexanone, 283.14 K	0.00496
in cyclohexanone, 288.19 K	0.00605
in cyclohexanone, 293.24 K	0.00732
in cyclohexanone, 298.14 K	0.00891
in cyclohexanone, 303.27 K	0.0107
in cyclohexanone, 308.13 K	0.0128
in cyclohexanone, 313.19 K	0.0152
in cyclohexanone, 318.22 K	0.0177
in cyclohexanone, 323.22 K	0.0204
in ethanol, 283.14 K	0.00258
in ethanol, 288.24 K	0.00282
in ethanol, 293.3 K	0.00329
in ethanol, 298.28 K	0.00391
in ethanol, 303.24 K	0.00465
in ethanol, 308.22 K	0.00538
in ethanol, 313.13 K	0.00664
in ethanol, 318.18 K	0.00802
in ethanol, 323.24 K	0.00972
in ethyl acetate, 283.17 K	0.000557
in ethyl acetate, 288.17 K	0.000665
in ethyl acetate, 293.16 K	0.000789
in ethyl acetate, 298.14 K	0.000994
in ethyl acetate, 303.17 K	0.0012
in ethyl acetate, 308.14 K	0.00147
in ethyl acetate, 313.17 K	0.00178
in ethyl acetate, 318.16 K	0.0022
in ethyl acetate, 323.19 K	0.00262
in isobutanol, 282.95 K	0.00115
in isobutanol, 288.04 K	0.0015
in isobutanol, 292.93 K	0.00203
in isobutanol, 298.24 K	0.0026
in isobutanol, 303.2 K	0.00316
in isobutanol, 308.22 K	0.00396
in isobutanol, 313.23 K	0.00489
in isobutanol, 318.17 K	0.00603
in isobutanol, 323.2 K	0.00742
in isopentanol, 283.77 K	0.00149
in isopentanol, 288.56 K	0.00196
in isopentanol, 293.5 K	0.00248
in isopentanol, 298.59 K	0.00304
in isopentanol, 303.13 K	0.00365
in isopentanol, 308.21 K	0.00452
in isopentanol, 313.25 K	0.00555
in isopentanol, 318.17 K	0.00672
in isopentanol, 323.25 K	0.00817
in isopropanol, 283.06 K	0.00146
in isopropanol, 288.14 K	0.00195
in isopropanol, 293.19 K	0.00245
in isopropanol, 298.24 K	0.00302
in isopropanol, 303.21 K	0.00371
in isopropanol, 308.16 K	0.00462
in isopropanol, 313.14 K	0.0057
in isopropanol, 318.22 K	0.00705
in isopropanol, 323.2 K	0.00852
in methanol, 283.12 K	0.00233
in methanol, 288.24 K	0.00248
in methanol, 293.26 K	0.00282
in methanol, 298.17 K	0.00333
in methanol, 303.12 K	0.00408
in methanol, 308.14 K	0.00498
in methanol, 313.13 K	0.00614
in methanol, 318.14 K	0.00754
in methanol, 323.12 K	0.00917
in methyl propionate, 283.19 K	0.000428
in methyl propionate, 288.22 K	0.000532
in methyl propionate, 293.23 K	0.000651
in methyl propionate, 298.17 K	0.000823
in methyl propionate, 303.23 K	0.001
in methyl propionate, 308.14 K	0.0012
in methyl propionate, 313.24 K	0.00148
in methyl propionate, 318.16 K	0.00182
in methyl propionate, 323.18 K	0.00221
in n-butanol, 283.16 K	0.00227
in n-butanol, 288.17 K	0.0027
in n-butanol, 293.14 K	0.00332
in n-butanol, 298.17 K	0.00403
in n-butanol, 303.16 K	0.00493
in n-butanol, 308.14 K	0.00599
in n-butanol, 313.17 K	0.00728
in n-butanol, 318.16 K	0.00881
in n-butanol, 323.17 K	0.0104
in n-butyl acetate, 283.17 K	0.000327
in n-butyl acetate, 288.19 K	0.000401
in n-butyl acetate, 293.2 K	0.000494
in n-butyl acetate, 298.14 K	0.000629
in n-butyl acetate, 303.19 K	0.000779
in n-butyl acetate, 308.16 K	0.000948
in n-butyl acetate, 313.14 K	0.00113
in n-butyl acetate, 318.14 K	0.00138
in n-butyl acetate, 323.2 K	0.00167
in n-pentanol, 283.23 K	0.00233
in n-pentanol, 288.23 K	0.00286
in n-pentanol, 293.29 K	0.00344
in n-pentanol, 298.5 K	0.00408
in n-pentanol, 303.24 K	0.00497
in n-pentanol, 308.02 K	0.006
in n-pentanol, 313.08 K	0.0072
in n-pentanol, 317.95 K	0.00857
in n-pentanol, 322.74 K	0.0103
in n-propanol, 283.13 K	0.00239
in n-propanol, 288.18 K	0.00289
in n-propanol, 293.27 K	0.00351
in n-propanol, 298.53 K	0.00421
in n-propanol, 303.33 K	0.00517
in n-propanol, 308.23 K	0.00617
in n-propanol, 313.37 K	0.00729
in n-propanol, 318.35 K	0.00856
in n-propanol, 323.26 K	0.0104
in n-propyl acetate, 283.16 K	0.000457
in n-propyl acetate, 288.24 K	0.000548
in n-propyl acetate, 293.16 K	0.000665
in n-propyl acetate, 298.18 K	0.000819
in n-propyl acetate, 303.16 K	0.001
in n-propyl acetate, 308.16 K	0.00122
in n-propyl acetate, 313.18 K	0.00146
in n-propyl acetate, 318.16 K	0.00177
in n-propyl acetate, 323.16 K	0.00214
in sec-butanol, 283.16 K	0.0023
in sec-butanol, 288.17 K	0.00294
in sec-butanol, 293.14 K	0.00365
in sec-butanol, 298.16 K	0.00444
in sec-butanol, 303.16 K	0.0053
in sec-butanol, 308.14 K	0.00642
in sec-butanol, 313.17 K	0.00766
in sec-butanol, 318.16 K	0.00914
in sec-butanol, 323.16 K	0.0106
